Here are results for four compounds from ChEMBL document CHEMBL1201862, “PubChem BioAssay data set” (2004).

Activity calls are given as the source filed them.

Test [1] deals with T1, Leucine aminopeptidase (Plasmodium falciparum 3D7, UniProt Q8IL11).
T1 sequence (Q8IL11 whole entry): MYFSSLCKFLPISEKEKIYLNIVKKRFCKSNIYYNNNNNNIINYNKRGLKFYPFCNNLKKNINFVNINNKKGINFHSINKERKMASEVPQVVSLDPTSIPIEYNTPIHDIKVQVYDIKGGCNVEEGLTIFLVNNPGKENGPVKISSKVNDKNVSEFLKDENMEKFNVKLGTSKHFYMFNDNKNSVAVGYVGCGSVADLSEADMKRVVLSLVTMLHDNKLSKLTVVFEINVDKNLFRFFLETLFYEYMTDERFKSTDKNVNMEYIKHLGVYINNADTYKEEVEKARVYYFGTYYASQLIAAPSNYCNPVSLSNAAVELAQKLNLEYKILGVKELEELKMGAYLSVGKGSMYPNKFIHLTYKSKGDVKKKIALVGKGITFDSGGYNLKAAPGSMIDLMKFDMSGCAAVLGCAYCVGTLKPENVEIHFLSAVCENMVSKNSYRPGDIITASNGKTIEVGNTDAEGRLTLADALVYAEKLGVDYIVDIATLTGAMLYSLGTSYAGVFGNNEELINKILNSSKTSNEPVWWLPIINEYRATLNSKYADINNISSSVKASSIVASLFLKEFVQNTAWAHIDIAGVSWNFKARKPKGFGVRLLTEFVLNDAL
Put plainly: P. falciparum M17LAP inhibitors, primary screen, biochemical, fluorogenic H-Leu-NHMec substrate, 1536-well (AID 1619). It is filed as functional.

A short description of test [2]: luciferase reporter signal suppression in cells – H4 neuroglioma cells, luminescence, dose response (AID 1990). The test is classed as functional, cell-based. For orientation: In a reporter assay the amount or activity of a reporter protein is the signal.
Test [3] concerns the target Paired box protein Pax-8 (Homo sapiens, UniProt Q06710). The test is described as follows: PAX8 transcriptional activity inhibition in RMG-I – RMG-I cells, luciferase, cherry-pick, dose response (AID 687027).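 Note: luciferase reporter driven by Pax8 target thyroperoxidase promoter measured by SteadyGlo luminescence.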 It is filed as functional, cell-based.
Test [4] concerns the target T2, Short transient receptor potential channel 4 (Mus musculus, UniProt Q9QUQ5).
T2 sequence (Q9QUQ5 whole entry): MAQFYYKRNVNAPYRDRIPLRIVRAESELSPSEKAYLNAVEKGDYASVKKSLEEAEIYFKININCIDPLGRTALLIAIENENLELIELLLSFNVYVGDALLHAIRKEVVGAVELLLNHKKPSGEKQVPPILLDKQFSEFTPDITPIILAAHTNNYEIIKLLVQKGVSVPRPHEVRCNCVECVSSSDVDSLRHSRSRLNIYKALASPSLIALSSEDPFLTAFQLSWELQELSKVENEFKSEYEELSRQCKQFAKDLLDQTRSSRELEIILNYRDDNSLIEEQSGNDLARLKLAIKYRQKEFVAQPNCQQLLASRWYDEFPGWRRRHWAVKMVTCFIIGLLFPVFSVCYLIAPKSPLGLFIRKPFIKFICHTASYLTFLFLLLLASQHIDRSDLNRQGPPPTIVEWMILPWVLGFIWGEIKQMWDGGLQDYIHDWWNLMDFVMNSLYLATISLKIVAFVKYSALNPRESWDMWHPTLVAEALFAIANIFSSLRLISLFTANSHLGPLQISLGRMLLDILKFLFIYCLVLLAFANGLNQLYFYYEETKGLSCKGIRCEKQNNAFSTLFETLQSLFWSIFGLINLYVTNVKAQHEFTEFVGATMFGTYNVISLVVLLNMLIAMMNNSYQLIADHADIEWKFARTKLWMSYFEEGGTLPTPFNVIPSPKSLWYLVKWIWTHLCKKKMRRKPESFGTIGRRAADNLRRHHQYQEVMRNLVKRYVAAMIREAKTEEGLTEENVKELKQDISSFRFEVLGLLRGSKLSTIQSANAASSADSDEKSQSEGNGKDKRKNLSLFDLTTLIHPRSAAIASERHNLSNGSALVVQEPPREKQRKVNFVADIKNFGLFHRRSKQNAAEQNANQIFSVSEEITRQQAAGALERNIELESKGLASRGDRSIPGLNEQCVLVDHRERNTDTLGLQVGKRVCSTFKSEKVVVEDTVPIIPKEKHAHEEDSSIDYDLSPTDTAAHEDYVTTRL
The test is described as follows: calcium entry via TRPC4 opening agents – cell-based, HEK293 TRPC4/mu-opioid, Fluo-4 calcium, dose response (AID 434937). It is filed as functional.

Test [5] concerns the target Albumin (Bos taurus, UniProt P02769). Put plainly: Counterscreen for inhibitors of T-cell receptor (TCR)-CD3 interaction: Fluorescence-based biochemical high throughput dose response assay to identify inhibitors of T-cell receptor (TCR)-CD3 interaction using a TAMRA-labeled BSA probe. The test is classed as functional. For orientation: A counterscreen serves to expose hits that act by an unwanted route or on another target.

For test [6], the target named is Voltage-gated N-type calcium channel alpha-1B subunit/Amyloid beta A4 precursor protein-binding family A member 1 (Homo sapiens, UniProt Q00975+Q02410). The test is classed as protein assay.
Test [7] has as its target T3, Sentrin-specific protease 8 (Homo sapiens, UniProt Q96LD8).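 Note: kinetic enzyme assay of SENP8 cleaving a Nedd8 protein substrate, dose-response confirmation of screening hits.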
T3 sequence (Q96LD8 whole entry): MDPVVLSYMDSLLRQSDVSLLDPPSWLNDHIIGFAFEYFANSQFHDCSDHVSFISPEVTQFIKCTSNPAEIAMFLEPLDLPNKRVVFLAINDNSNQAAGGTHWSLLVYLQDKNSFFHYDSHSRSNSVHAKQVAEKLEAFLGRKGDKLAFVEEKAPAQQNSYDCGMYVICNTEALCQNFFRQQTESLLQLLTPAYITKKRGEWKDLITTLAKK
It is filed as functional.

Test [8] concerns the target SUMO-activating enzyme (Homo sapiens, UniProt Q9UBT2). Put plainly: blockers of UBC9-mediated SUMO conjugation – biochemical, AlphaScreen, SUMOylation inhibitor project, confirmation (AID 2018). The test is classed as functional. For orientation: Bead proximity is the source of the signal in Alpha formats.
Test [9] concerns the target Apoptotic protease-activating factor 1 (Homo sapiens, UniProt O14727). It is filed as functional.

SUMO-activating enzyme, sequence (Q9UBE0 whole entry): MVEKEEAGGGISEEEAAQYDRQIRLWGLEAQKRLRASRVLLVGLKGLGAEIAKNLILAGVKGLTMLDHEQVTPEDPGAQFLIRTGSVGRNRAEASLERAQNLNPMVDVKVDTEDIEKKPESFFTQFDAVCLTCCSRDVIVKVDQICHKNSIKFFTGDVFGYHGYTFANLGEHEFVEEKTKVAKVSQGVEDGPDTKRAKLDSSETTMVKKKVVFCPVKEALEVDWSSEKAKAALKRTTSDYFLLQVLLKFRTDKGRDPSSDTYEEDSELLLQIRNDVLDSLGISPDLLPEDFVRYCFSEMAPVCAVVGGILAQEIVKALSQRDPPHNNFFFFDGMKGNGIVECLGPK
SUMO-activating enzyme, sequence (Q9UBT2 whole entry): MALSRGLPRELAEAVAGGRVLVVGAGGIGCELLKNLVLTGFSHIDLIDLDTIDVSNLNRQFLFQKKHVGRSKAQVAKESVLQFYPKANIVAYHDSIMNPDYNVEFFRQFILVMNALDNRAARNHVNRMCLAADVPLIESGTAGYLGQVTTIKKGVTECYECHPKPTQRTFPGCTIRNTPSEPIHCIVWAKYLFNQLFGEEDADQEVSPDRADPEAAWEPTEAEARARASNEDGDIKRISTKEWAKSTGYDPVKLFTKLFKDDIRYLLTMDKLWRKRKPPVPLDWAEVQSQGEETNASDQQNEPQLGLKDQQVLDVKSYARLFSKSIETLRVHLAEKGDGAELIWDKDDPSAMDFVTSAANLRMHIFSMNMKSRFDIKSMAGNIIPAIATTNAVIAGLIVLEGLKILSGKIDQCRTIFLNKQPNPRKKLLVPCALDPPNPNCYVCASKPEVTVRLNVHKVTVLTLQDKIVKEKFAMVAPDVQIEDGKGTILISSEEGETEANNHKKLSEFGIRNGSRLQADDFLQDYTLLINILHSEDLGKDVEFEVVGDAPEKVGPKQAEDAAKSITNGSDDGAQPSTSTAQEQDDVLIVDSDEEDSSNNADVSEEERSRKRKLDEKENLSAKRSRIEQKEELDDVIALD
Albumin, sequence (P02769 whole entry): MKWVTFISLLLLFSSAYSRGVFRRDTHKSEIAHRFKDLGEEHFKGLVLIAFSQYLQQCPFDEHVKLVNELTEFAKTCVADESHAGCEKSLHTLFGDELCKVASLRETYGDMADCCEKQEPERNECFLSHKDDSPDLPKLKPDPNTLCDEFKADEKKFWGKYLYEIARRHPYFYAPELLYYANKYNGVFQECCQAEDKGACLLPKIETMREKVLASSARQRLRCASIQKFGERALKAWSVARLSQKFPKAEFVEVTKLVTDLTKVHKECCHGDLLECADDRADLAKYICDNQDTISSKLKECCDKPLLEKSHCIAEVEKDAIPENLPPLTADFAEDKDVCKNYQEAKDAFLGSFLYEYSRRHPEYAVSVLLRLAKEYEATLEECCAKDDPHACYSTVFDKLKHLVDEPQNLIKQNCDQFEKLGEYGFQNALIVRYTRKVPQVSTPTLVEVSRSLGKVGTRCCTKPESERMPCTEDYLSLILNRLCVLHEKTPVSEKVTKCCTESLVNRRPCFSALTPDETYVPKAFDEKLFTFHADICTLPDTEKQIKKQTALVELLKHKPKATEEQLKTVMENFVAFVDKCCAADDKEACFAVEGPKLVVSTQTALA
Voltage-gated N-type calcium channel alpha-1B subunit/Amyloid beta A4 precursor protein-binding family A member 1, sequence (Q00975 whole entry): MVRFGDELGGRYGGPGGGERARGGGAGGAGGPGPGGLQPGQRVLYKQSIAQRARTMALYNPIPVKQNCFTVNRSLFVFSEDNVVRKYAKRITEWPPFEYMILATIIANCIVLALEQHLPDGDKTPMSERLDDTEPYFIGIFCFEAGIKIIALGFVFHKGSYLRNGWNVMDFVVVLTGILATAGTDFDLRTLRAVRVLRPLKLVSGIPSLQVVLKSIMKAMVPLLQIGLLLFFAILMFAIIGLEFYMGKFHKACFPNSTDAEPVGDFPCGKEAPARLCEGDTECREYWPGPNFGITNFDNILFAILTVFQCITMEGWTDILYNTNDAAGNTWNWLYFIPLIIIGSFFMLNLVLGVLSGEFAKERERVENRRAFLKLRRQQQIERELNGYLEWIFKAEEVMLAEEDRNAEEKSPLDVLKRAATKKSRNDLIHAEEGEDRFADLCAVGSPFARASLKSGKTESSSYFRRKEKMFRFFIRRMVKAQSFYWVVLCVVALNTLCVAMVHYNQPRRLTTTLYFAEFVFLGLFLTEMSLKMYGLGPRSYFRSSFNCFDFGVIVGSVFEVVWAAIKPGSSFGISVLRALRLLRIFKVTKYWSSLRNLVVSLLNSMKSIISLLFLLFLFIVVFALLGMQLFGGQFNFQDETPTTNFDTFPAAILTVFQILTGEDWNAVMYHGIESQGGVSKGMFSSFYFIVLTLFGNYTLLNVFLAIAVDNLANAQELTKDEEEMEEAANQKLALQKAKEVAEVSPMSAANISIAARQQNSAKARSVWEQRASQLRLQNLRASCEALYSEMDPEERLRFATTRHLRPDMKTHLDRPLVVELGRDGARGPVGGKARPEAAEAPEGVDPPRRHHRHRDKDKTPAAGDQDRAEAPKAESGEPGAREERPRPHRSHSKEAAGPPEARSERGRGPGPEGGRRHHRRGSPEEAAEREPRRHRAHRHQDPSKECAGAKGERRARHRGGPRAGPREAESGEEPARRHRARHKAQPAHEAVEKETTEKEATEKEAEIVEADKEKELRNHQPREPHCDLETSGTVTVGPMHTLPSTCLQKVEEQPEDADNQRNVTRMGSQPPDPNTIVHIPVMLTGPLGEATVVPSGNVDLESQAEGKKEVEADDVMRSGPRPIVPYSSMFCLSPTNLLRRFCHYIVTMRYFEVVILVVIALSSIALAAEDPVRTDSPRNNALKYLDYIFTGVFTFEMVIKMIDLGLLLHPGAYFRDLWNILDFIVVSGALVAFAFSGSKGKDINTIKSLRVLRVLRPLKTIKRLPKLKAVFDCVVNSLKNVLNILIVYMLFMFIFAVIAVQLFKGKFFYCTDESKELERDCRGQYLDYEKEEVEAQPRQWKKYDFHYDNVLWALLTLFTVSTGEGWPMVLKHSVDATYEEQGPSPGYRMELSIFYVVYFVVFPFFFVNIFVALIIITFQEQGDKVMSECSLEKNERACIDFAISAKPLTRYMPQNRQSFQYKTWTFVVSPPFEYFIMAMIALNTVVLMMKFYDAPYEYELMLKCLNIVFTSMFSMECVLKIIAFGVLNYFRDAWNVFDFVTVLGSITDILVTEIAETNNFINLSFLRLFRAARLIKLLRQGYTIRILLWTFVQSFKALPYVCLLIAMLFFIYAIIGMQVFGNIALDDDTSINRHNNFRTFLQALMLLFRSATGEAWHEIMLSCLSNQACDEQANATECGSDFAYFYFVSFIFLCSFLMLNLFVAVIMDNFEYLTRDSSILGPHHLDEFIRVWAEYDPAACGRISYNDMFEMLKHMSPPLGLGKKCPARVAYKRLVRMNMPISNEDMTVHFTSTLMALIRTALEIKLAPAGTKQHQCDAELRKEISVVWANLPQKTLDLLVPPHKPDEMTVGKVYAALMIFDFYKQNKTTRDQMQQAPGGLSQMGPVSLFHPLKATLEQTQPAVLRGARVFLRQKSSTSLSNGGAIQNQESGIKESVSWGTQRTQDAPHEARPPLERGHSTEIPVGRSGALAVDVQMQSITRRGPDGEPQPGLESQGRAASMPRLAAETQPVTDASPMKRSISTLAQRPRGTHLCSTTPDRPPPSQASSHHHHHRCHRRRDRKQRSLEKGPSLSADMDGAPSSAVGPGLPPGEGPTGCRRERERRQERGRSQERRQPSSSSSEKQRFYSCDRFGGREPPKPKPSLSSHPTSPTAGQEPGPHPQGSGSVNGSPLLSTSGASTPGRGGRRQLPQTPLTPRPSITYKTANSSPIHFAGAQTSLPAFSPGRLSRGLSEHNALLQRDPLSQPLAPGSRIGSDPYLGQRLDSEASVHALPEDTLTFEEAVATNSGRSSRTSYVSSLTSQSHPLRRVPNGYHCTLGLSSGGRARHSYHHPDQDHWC
Voltage-gated N-type calcium channel alpha-1B subunit/Amyloid beta A4 precursor protein-binding family A member 1, sequence (Q02410 whole entry): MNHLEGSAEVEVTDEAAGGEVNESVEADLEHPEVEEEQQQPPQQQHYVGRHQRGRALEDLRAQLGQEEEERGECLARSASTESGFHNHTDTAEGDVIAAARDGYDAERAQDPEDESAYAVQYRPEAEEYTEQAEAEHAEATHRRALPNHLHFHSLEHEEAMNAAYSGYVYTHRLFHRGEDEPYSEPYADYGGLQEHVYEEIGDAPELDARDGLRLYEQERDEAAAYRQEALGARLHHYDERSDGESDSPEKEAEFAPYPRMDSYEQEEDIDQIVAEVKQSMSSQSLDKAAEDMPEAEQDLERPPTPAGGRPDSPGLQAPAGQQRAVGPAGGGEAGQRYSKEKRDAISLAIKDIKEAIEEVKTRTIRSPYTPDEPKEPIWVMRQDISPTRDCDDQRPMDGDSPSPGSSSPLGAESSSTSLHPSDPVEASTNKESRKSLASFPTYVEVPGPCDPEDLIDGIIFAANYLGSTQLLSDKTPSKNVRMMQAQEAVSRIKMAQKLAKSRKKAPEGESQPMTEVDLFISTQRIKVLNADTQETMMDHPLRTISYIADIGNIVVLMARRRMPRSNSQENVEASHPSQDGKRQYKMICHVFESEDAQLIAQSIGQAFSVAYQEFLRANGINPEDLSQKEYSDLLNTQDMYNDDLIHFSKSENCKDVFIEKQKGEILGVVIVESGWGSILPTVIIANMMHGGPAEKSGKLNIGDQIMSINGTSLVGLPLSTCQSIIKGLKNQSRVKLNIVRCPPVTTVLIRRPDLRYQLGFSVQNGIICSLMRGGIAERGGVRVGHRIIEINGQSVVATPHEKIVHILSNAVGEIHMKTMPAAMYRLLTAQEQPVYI

By IC50 is commonly meant the concentration needed to halve the response being measured. On to `Oc1cc(-c2cccc3ccccc23)[nH]n1`, for which the IC50 in [1] was 2.9 µM (active).
As a reminder, the EC50 is the concentration that produces a half-maximal response. By AC50 is commonly meant the concentration giving half of the maximal activity seen. For the compound `O=C(Nc1cccc(NC(=O)c2ccccc2Cl)c1)c1ccc([N+](=O)[O-])o1`, in test [2], the EC50 was 8.33 µM (active). Moreover, the AC50 in test [3] was 2.48 µM (active).
As for `Cn1c(O)c(/C=N/NC(=O)c2cc3ccccc3cc2O)c2ccccc21`, the EC50 in [4] was 5.96 µM (active). In test [5], the IC50 is > 94.1 µM (inactive).
With `c1coc(-c2nnc(-c3ccco3)nn2)c1`, the IC50 in test [6] was 17.7 µM (active); in test [7], 5.41 µM (active); in [8], 0.99 µM (active); in [9] it was 15.8 µM (active).
